Reference: patent US8163766B2, “Beta-secretase modulators and methods of use” (Amgen Inc., priority 2005, dated 2012)

What follows are compounds tested on Aβ 40 in conditioned media of cells stably expressing Amyloid Precursor Protein (APP) (assay: BACE Cell-Based Assay (Aβ40 in conditioned medium, sandwich ELISA)). Settings: 24 hours of incubation with the test compounds, Aβ 40 by sandwich ELISA, read-out: IC50 values in the cell-based assay (inhibition of Aβ 40).
How it was run: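 APP-stably-expressing cells in DMEM/10% FBS exposed 24 h to 10-point compound dilutions starting at 100 or 10 μM, 0.1% DMSO final. Aβ40 in conditioned medium measured by sandwich ELISA (pAb40 capture, biotinylated 6E10 detection, Eu time-resolved fluorescence); IC50 from percent inhibition versus concentration.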

Structure (SMILES)	IC50
CC(C)n1cc(C(=O)N[C@@H](Cc2ccccc2)[C@H](O)CN[C@H]2CC(C)(C)Cc3sc(CC(C)(C)C)cc32)cc(-c2ccccn2)c1=O [Example 501, N-((1S,2R)-3-(((4S)-2-(2,2-dimethylpropyl)-6,6-dimethyl-4,5,6,7-tetrahydro-1-benzothien-4-yl)amino)-2-hydroxy-1-(phenylmethyl)propyl)-1′-(1-methylethyl)-2′-oxo-1′,2′-dihydro-2,3′-bipyridine-5′-carboxamide]	≤ 5 µM
Cc1cnc2c(c1)[C@@H](NC[C@@H](O)[C@H](Cc1ccccc1)NC(=O)C1CCOCC1)CC1(CCC1)C2 [Example 502, N-((1S,2R)-2-hydroxy-3-(((5′S)-3′-methyl-5′,8′-dihydro-6′H-spiro[cyclobutane-1,7′-quinolin]-5′-yl)amino)-1-(phenylmethyl)propyl)tetrahydro-2H-pyran-4-carboxamide]	≤ 5 µM
Cc1cnc2c(c1)[C@@H](NC[C@@H](O)[C@H](Cc1cc(F)cc(F)c1)NC(=O)C1CCOCC1)CC(C)(C)C2 [Example 503, N-((1S,2R)-1-((3,5-difluorophenyl)methyl)-2-hydroxy-3-(((5S)-3,7,7-trimethyl-5,6,7,8-tetrahydro-5-quinolinyl)amino)propyl)tetrahydro-2H-pyran-4-carboxamide]	≤ 5 µM
Cc1cnc2c(c1)[C@@H](NC[C@@H](O)[C@H](Cc1ccccc1)NC(=O)C1CCOCC1)CC(C)(C)C2 [Example 504, N-((1S,2R)-2-hydroxy-1-(phenylmethyl)-3-(((5S)-3,7,7-trimethyl-5,6,7,8-tetrahydro-5-quinolinyl)amino)propyl)tetrahydro-2H-pyran-4-carboxamide]	≤ 5 µM
COCCNc1ccc2c(c1)[C@@H](NC[C@@H](O)[C@H](Cc1ccccc1)NC(=O)c1cc(-c3ccccn3)c(=O)n(C3CCCC3)c1)CC(C)(C)C2=O [Example 505, 1′-cyclopentyl-N-((1S,2R)-3-(((1S)-3,3-dimethyl-7-((2-(methyloxy)ethyl)amino)-4-oxo-1,2,3,4-tetrahydro-1-naphthalenyl)amino)-2-hydroxy-1-(phenylmethyl)propyl)-2′-oxo-1′,2′-dihydro-2,3′-bipyridine-5′-carboxamide]	≤ 5 µM
COCCNc1ccc2c(c1)[C@@H](NC[C@@H](O)[C@@H](Cc1ccccc1)NC(=O)c1cc(-c3ccccn3)c(=O)n(C3CCCC3)c1)CC(C)(C)C2=O [Example 507, 1′-cyclopentyl-N-((1R,2R)-3-(((1S)-3,3-dimethyl-7-((2-(methyloxy)ethyl)amino)-4-oxo-1,2,3,4-tetrahydro-1-naphthalenyl)amino)-2-hydroxy-1-(phenylmethyl)propyl)-2′-oxo-1′,2′-dihydro-2,3′-bipyridine-5′-carboxamide]	≤ 5 µM
CCc1cc2c(s1)CC1(CCC1)C[C@@H]2NC[C@@H](O)[C@H](Cc1ccccc1)NC(=O)c1cc(-c2ccccn2)c(=O)n(C(C)C)c1 [Example 508, N-((1S,2R)-3-(((4S)-2-ethyl-4,7-dihydro-5H-spiro[1-benzothiophene-6,1′-cyclobutan]-4-yl)amino)-2-hydroxy-1-(phenylmethyl)propyl)-1′-(1-methylethyl)-2′-oxo-1′,2′-dihydro-2,3′-bipyridine-5′-carboxamide]	≤ 5 µM
Cc1cnc2c(c1)[C@@H](NC[C@@H](O)[C@H](Cc1cc(F)cc(F)c1)NC(=O)[C@@H]1CCOC1)CC1(CCC1)C2 [Example 509, (3R)-N-((1S,2R)-1-((3,5-difluorophenyl)methyl)-2-hydroxy-3-(((5′S)-3′-methyl-5′,8′-dihydro-6′H-spiro[cyclobutane-1,7′-quinolin]-5′-yl)amino)propyl)tetrahydro-3-furancarboxamide]	≤ 5 µM
Cc1cnc2c(c1)[C@@H](NC[C@@H](O)[C@H](Cc1cc(F)cc(F)c1)NC(=O)C1CCOCC1)CC1(CCC1)C2 [Example 510, N-((1S,2R)-1-((3,5-difluorophenyl)methyl)-2-hydroxy-3-(((5′S)-3′-methyl-5′,8′-dihydro-6′H-spiro[cyclobutane-1,7′-quinolin]-5′-yl)amino)propyl)tetrahydro-2H-pyran-4-carboxamide]	≤ 5 µM
CCc1ccc2c(c1)[C@@H](NC[C@@H](O)[C@H](Cc1ccccc1)NC(=O)[C@H]1CN(C(=O)c3cccc(C)c3)CCO1)CC1(CCC1)O2 [Example 511, (2R)-N-((1S,2R)-3-(((4S)-6-ethyl-3,4-dihydrospiro[chromene-2,1′-cyclobutan]-4-yl)amino)-2-hydroxy-1-(phenylmethyl)propyl)-4-((3-methylphenyl)carbonyl)-2-morpholinecarboxamide]	≤ 5 µM
CC1(C)Oc2ncccc2[C@H]1NC[C@@H](O)[C@H](Cc1ccccc1)NC(=O)c1cc(-c2ccccn2)c(=O)n(C2CCCC2)c1 [Example 512, 1′-cyclopentyl-N-((1S,2R)-3-(((3R)-2,2-dimethyl-2,3-dihydrofuro[2,3-b]pyridin-3-yl)amino)-2-hydroxy-1-(phenylmethyl)propyl)-2′-oxo-1′,2′-dihydro-2,3′-bipyridine-5′-carboxamide]	≤ 5 µM
CC1(C)Oc2ncccc2[C@@H]1NC[C@@H](O)[C@H](Cc1ccccc1)NC(=O)c1cc(C2=CC=CCN2)c(=O)n(C2CCCC2)c1 [Example 513, 1′-cyclopentyl-N-((1S,2R)-3-(((3S)-2,2-dimethyl-2,3-dihydrofuro[2,3-b]pyridin-3-yl)amino)-2-hydroxy-1-(phenylmethyl)propyl)-2′-oxo-1,2′-dihydro-2,3′-bipyridine-5′-carboxamide]	≤ 5 µM
CCc1cc2c(s1)CC(C)(C)C[C@@H]2NC[C@@H](O)[C@H](Cc1ccccc1)NC(=O)[C@@H]1CN(C(=O)c2cccc(C)c2)CCO1 [Example 514, (2S)-N-((1S,2R)-3-(((4S)-2-ethyl-6,6-dimethyl-4,5,6,7-tetrahydro-1-benzothien-4-yl)amino)-2-hydroxy-1-(phenylmethyl)propyl)-4-((3-methylphenyl)carbonyl)-2-morpholinecarboxamide]	≤ 5 µM
CCc1cc2c(s1)CC(C)(C)C[C@@H]2NC[C@@H](O)[C@H](Cc1ccccc1)NC(=O)[C@H]1CN(C(=O)c2cccc(C)c2)CCO1 [Example 515, (2R)-N-((1S,2R)-3-(((4S)-2-ethyl-6,6-dimethyl-4,5,6,7-tetrahydro-1-benzothien-4-yl)amino)-2-hydroxy-1-(phenylmethyl)propyl)-4-((3-methylphenyl)carbonyl)-2-morpholinecarboxamide]	≤ 5 µM
CC1(C)Cc2ccc(O[C@H]3CCOC3)cc2[C@@H](NC[C@@H](O)[C@H](Cc2ccccc2)NC(=O)[C@H]2CCC(=O)O2)C1 [Example 516, (2R)-N-((1S,2R)-3-(((1S)-3,3-dimethyl-7-((3S)-tetrahydro-3-furanyloxy)-1,2,3,4-tetrahydro-1-naphthalenyl)amino)-2-hydroxy-1-(phenyl-methyl)propyl)-5-oxotetrahydro-2-furancarboxamide]	≤ 5 µM
CC1(C)Cc2ccc(O[C@H]3CCOC3)cc2[C@@H](NC[C@@H](O)[C@H](Cc2ccccc2)NC(=O)[C@@H]2CCC(=O)O2)C1 [Example 517, (2S)-N-((1S,2R)-3-(((1S)-3,3-dimethyl-7-((3S)-tetrahydro-3-furanyloxy)-1,2,3,4-tetrahydro-1-naphthalenyl)amino)-2-hydroxy-1-(phenyl-methyl)propyl)-5-oxotetrahydro-2-furancarboxamide]	≤ 5 µM
